This note sets out measurements from US11130793B2, “GLP-1/GLP-2 dual agonists” (Zealand Pharma A/S, priority 2016, dated 2021).

Where two headings read alike, the source gives them in different places. Square brackets hold non-standard residues; d marks the D form. Peptide text beside a SMILES is read from it. Aib = CC(C)(N)C(=O)O

The target of one data set is T1, human GLP-1 receptor (Homo sapiens, UniProt P43220).
T1 construct: expressed in transfected cells
As to the kind of experiment: GLP-1 receptor potency assay (cAMP AlphaScreen, HEK293 cells stably expressing GLP-1R). Format: cell-based. Put shortly: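 cAMP accumulation was quantified by AlphaScreen in G418-selected HEK293 cells stably transfected with human GLP-1R cDNA. Concentration-response data were normalized between vehicle and positive control. EC50 and maximal response came from 4PL curve fitting.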
For orientation: In Alpha technology, singlet oxygen from a donor bead excites a nearby acceptor bead.

For data set [1], the target named is T2, human GLP-2 receptor (Homo sapiens, UniProt O95838, D470N).
T2 sequence (O95838 1-553 D470N): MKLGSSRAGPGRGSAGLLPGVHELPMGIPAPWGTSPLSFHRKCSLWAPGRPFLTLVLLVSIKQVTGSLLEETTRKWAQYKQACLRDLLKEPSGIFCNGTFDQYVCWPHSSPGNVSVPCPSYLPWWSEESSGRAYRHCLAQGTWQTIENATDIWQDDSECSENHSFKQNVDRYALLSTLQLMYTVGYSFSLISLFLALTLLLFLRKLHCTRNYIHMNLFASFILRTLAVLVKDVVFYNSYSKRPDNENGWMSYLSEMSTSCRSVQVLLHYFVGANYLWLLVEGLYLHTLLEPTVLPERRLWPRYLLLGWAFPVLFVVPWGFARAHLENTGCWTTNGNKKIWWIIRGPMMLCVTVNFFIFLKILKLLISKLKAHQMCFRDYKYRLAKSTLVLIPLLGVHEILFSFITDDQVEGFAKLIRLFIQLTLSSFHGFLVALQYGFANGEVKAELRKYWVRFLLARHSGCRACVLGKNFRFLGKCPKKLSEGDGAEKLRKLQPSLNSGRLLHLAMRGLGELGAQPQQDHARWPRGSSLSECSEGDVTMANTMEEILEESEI
As to the kind of experiment: GLP-2 receptor potency assay (cAMP AlphaScreen, HEK293 cells stably expressing GLP-2R). Format: cell-based. The conditions noted are these: cAMP response, HEK293 cells expressing human GLP-2R. Put shortly: (§1)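 EC50 and maximal response were fitted with a 4PL model after normalization to positive control and vehicle. cAMP accumulation was quantified by AlphaScreen in a stable HEK293 clone transfected with human GLP-2 receptor.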

Data set [2] is described as follows: Solubility assessment by turbidity absorbance at 325 nm. The conditions noted are these: 1 mg/ml peptide. The format is physicochemical. The procedure: A stock solution of the test peptide (2 mg/ml; determined from the weighed amount of peptide) in demineralized water adjusted to pH 2.5 with HCl was prepared, and aliquots were diluted 1:1 in 100 mM acetate buffer (pH 4.0 and pH 5.0), 100 mM histidine buffer (pH 6.0 and pH 7.0) and 100 mM phosphate buffer (pH 6.0, pH 7.0 and pH7.5), respectively, and loaded in a standard flat-bottom, non-sterile 96-well UV Microplate. The absorbance of samples (single samples, n=1) at 280 and 325 nm was measured in an absorbance-based plate reader, which was preheated to ambient temperature (typically 25° C.).

Data set [3] relates to Normal chow-fed C57BL/6J male mice. Put plainly: Effect on fasting glucose and intestinal weight in normal mice. The format is in vivo. The conditions noted are these: for Small intestinal wet weight: 250 nmol/kg s.c. once daily for 4 days, sacrificed 24 hours after final dosing; for Fasting blood glucose: day 0, fasted mice, after a single s.c. injection, 250 nmol/kg. On the procedure:
Normal chow-fed C57BL/6J male mice were used. The mice were kept in standard housing conditions, light-, temperature-, and humidity-controlled room (12:12 h light-dark cycle, with lights on at 06.00-18.00 h; 20-22° C.; 50-80% relative humidity). Each dosing group consisted of 6 animals. Mice were dosed once daily with 250 nmol/kg with the test compounds or vehicle for 4 days via subcutaneous administration.
On day 0 mice were fasted and blood glucose levels measured after a single s.c. injection with peptides. Animals were sacrificed 24 hours after final dosing on day 3, and small intestinal wet weights were measured.

Data set [4] has as its target T3, human GLP-2 receptor (Homo sapiens, UniProt O95838).
T3 sequence (O95838 1-553 D470N): T2 sequence (O95838 1-553 D470N)
Put plainly: GLP-2 receptor potency assay (cAMP AlphaScreen, HEK293 cells stably expressing GLP-2R). Format: cell-based. In outline:
as §1

Data set [5] in a line: Chemical stability, RP-HPLC main peak area-% after incubation at 40° C. The conditions noted are these: pH 7, 40° C., 14 day incubation, 0.2 mg/ml, normalized purity. The format is physicochemical. On the procedure:
Samples of each test peptide were dissolved in MilliQ™ water, and the pH of the solution was adjusted to pH 6, 7, 7.5 or 9 using either HCl or NaOH. The final peptide concentration was 0.2 mg/ml. Samples were placed in glass vials and incubated at 40° C. The samples were analyzed by RP-HPLC on a C18 column with gradient elution using an acetonitrile/TFA/water eluent system. The area-percentage (area-%) of the main peak after incubation time T=t (relative to time T=0) was determined by UV spectroscopy at 220 nm.
The purity was first determined as follows: Purity (area-%)=(area of main peak/total area of all peaks)×100.
The purity was then normalized between time points by setting purity at time 0 (T=0) to 100 for each pH value for a given peptide, as follows: Normalised area-% at time t (T=t)=[area-% (T=t)/area-% (T=0)]×100.
The chemical stability assessment results after 14 day incubation (in the form of normalized purity values) are summarized in Table 4.

Data set [6] addresses human glucagon-like peptide 1 receptor (GLP-1R) (human) (UniProt P43220).
Setting [7] is: cAMP response, HEK293 cells expressing human GLP-1R, read-out: EC50 GLP-1.
Setting [8] is: 100 mM acetate buffer pH 4.0, ambient temperature, read-out: Solubility, Acetate buffer pH 4.
Where [9] appears, read: 100 mM acetate buffer pH 5.0, ambient temperature, read-out: Solubility, Acetate buffer pH 5.
The mark [10] stands for this setting: 100 mM histidine buffer pH 6.0, ambient temperature, read-out: Solubility, Histidine buffer pH 6.
[11] abbreviates: 100 mM histidine buffer pH 7.0, ambient temperature, read-out: Solubility, Histidine buffer pH 7.
The mark [12] stands for this setting: 100 mM phosphate buffer pH 6.0, ambient temperature, read-out: Solubility, Phosphate buffer pH 6.
Where [13] appears, read: 100 mM phosphate buffer pH 7.0, ambient temperature, read-out: Solubility, Phosphate buffer pH 7.
[14] abbreviates: 100 mM phosphate buffer pH 7.5, ambient temperature, read-out: Solubility, Phosphate buffer pH 7.5.

T1 sequence (P43220 24-463): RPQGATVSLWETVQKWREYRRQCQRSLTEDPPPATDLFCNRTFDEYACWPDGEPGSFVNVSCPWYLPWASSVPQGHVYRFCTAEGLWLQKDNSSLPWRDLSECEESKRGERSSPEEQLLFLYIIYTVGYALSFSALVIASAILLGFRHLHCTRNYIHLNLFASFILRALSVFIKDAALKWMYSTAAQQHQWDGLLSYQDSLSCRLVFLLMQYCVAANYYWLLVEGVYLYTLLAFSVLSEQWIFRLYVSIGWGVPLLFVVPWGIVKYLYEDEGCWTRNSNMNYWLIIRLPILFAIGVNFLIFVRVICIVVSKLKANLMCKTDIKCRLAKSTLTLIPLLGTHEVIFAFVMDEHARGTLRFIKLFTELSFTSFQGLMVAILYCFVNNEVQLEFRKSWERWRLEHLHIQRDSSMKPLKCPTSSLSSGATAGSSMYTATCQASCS

`CC[C@H](C)[C@H](NC(=O)[C@H](CC(C)C)NC(=O)[C@H](Cc1c[nH]c2ccccc12)NC(=O)[C@H](C)NC(=O)[C@@H](NC(=O)[C@H](Cc1ccccc1)NC(=O)[C@H](CC(=O)O)NC(=O)[C@H](CCCNC(=N)N)NC(=O)[C@H](C)NC(=O)[C@H](C)NC(=O)[C@H](CCC(N)=O)NC(=O)[C@H](CCC(=O)O)NC(=O)[C@H](CC(=O)O)NC(=O)[C@H](CC(C)C)NC(=O)[C@@H](NC(=O)[C@@H](NC(=O)[C@H](C)NC(=O)[C@H](CC(C)C)NC(=O)[C@H](CCC(=O)O)NC(=O)[C@H](CO)NC(=O)[C@@H](NC(=O)[C@H](Cc1ccccc1)NC(=O)[C@H](CO)NC(=O)CNC(=O)[C@H](CCC(=O)O)NC(=O)C(C)(C)NC(=O)[C@@H](N)Cc1c[nH]cn1)[C@@H](C)O)[C@@H](C)O)[C@@H](C)CC)[C@@H](C)CC)C(=O)N[C@@H](C)C(=O)N[C@@H](Cc1c[nH]cn1)C(=O)N[C@@H](CCCCN)C(=O)N[C@H](C(=O)N[C@H](C(=O)N[C@@H](CC(=O)O)C(=O)O)[C@@H](C)O)[C@@H](C)CC` [Compound 1] (H-H[Aib]EGSFTSELATILDEQAARDFIAWLIAHKITD-OH): the EC50 (as a rule, the concentration that produces a half-maximal response) at human GLP-1 receptor (setting [7]) is 0.014 nM; at human GLP-2 receptor [1], 0.036 nM. The solubility – broadly, the concentration that dissolves in the medium under given conditions – in data set [2] (setting [8]) is at least 1000 µg/mL; in data set [2] (setting [9]), below 1000 µg/mL; in data set [2] (setting [10]), at least 1000 µg/mL; in data set [2] (setting [11]) it was at least 1000 µg/mL; in data set [2] (setting [12]), at least 1000 µg/mL; in data set [2] (setting [13]), at least 1000 µg/mL. Also, the solubility in data set [2] (setting [14]) is at least 1000 µg/mL. In data set [3], the “Small intestinal wet weight” value worked out at 0.90 g. The Fasting blood glucose in data set [3] amounted to 5.76 mM.
For `CC[C@H](C)[C@H](NC(=O)[C@H](Cc1ccccc1)NC(=O)[C@H](CC(=O)O)NC(=O)[C@H](CCCNC(=N)N)NC(=O)[C@H](C)NC(=O)[C@H](C)NC(=O)[C@H](CCC(N)=O)NC(=O)[C@H](CCC(=O)O)NC(=O)[C@H](CC(=O)O)NC(=O)[C@H](CC(C)C)NC(=O)[C@@H](NC(=O)[C@@H](NC(=O)[C@H](C)NC(=O)[C@H](CC(C)C)NC(=O)[C@H](CCC(=O)O)NC(=O)[C@H](CO)NC(=O)[C@@H](NC(=O)[C@H](Cc1ccccc1)NC(=O)[C@@H](NC(=O)CNC(=O)[C@H](CCC(=O)O)NC(=O)C(C)(C)NC(=O)[C@@H](N)Cc1c[nH]cn1)[C@@H](C)O)[C@@H](C)O)[C@@H](C)O)[C@@H](C)CC)C(=O)N[C@@H](C)C(=O)N[C@@H](Cc1c[nH]c2ccccc12)C(=O)N[C@@H](CC(C)C)C(=O)N[C@H](C(=O)N[C@@H](CCC(=O)O)C(=O)N[C@@H](Cc1c[nH]cn1)C(=O)N[C@@H](CCCCN)C(=O)N[C@H](C(=O)N[C@H](C(=O)N[C@@H](CC(=O)O)C(=O)O)[C@@H](C)O)[C@@H](C)CC)[C@@H](C)CC` [Compound 5] (H-H[Aib]EGTFTSELATILDEQAARDFIAWLIEHKITD-OH), the half-maximal effective concentration (EC50) was 0.0098 nM at human GLP-1 receptor (setting [7]) and 0.067 nM at human GLP-2 receptor [1]. The solubility was at least 1000 µg/mL in data set [2] (setting [8]); below 1000 µg/mL in data set [2] (setting [9]); at least 1000 µg/mL in data set [2] (setting [10]); at least 1000 µg/mL in data set [2] (setting [11]); at least 1000 µg/mL in data set [2] (setting [12]); at least 1000 µg/mL in data set [2] (setting [13]). In data set [2] (setting [14]), the solubility is at least 1000 µg/mL. Also, the “Small intestinal wet weight” value in data set [3] was determined as 0.90 g. The Fasting blood glucose in data set [3] was 5.43 mM.
For the compound `CC[C@H](C)[C@H](NC(=O)[C@H](CC(C)C)NC(=O)[C@H](Cc1c[nH]c2ccccc12)NC(=O)[C@H](C)NC(=O)[C@@H](NC(=O)[C@H](Cc1ccccc1)NC(=O)[C@H](CCC(=O)O)NC(=O)[C@H](CCCNC(=N)N)NC(=O)[C@H](CO)NC(=O)[C@H](C)NC(=O)[C@H](CCC(N)=O)NC(=O)[C@H](CCC(=O)O)NC(=O)[C@H](CCC(=O)O)NC(=O)[C@H](CC(C)C)NC(=O)[C@@H](NC(=O)[C@@H](NC(=O)[C@H](CO)NC(=O)[C@H](CC(C)C)NC(=O)[C@H](CCC(=O)O)NC(=O)[C@H](CO)NC(=O)[C@H](CO)NC(=O)[C@H](Cc1ccccc1)NC(=O)[C@@H](NC(=O)CNC(=O)[C@H](CCC(=O)O)NC(=O)C(C)(C)NC(=O)[C@@H](N)Cc1c[nH]cn1)[C@@H](C)O)[C@@H](C)O)[C@@H](C)CC)[C@@H](C)CC)C(=O)N[C@@H](C)C(=O)N[C@@H](Cc1c[nH]cn1)C(=O)N[C@@H](CCCCN)C(=O)N[C@H](C(=O)N[C@H](C(=O)N[C@@H](CCC(=O)O)C(=O)O)[C@@H](C)O)[C@@H](C)CC` [Compound 39] (H-H[Aib]EGTFSSELSTILEEQASREFIAWLIAHKITE-OH), the figures for the half-maximal effective concentration (EC50) at human GLP-1 receptor and at human GLP-2 receptor [4] were 0.03 nM and 0.96 nM, respectively.
In the case of “H-HGEGTFTSELATILDEQAARDFIAWLIAHKITD-OH [Compound 38]”, the EC50 at human GLP-1 receptor worked out at 0.008 nM; at human GLP-2 receptor [4], 0.043 nM. Besides, in data set [5], the “pH 7 normalised stability” value is “C (<80% normalized stability)”.
Liraglutide (NN2211; Victoza) (peptide): the EC50 GLP-1 (nM); cAMP AlphaScreen in data set [6] was 0.029 nM.
